Values quoted from earlier work as cited in patent US4390710A, “Catalyst system for manufacturing p-chlorophenyl-N-methyl carbamate” (PPG Industries, Inc., priority 1981, dated 1983).

Conditions: organic herbicides such as isopropyl-N-(3-chlorophenyl) carbamate and isopropyl-N-phenyl carbamate

In the case of `CNC(=O)Oc1ccc(Cl)cc1` [p-chlorophenyl-N-methyl carbamate], the “extending the soil life of organic herbicides” value is listed as “capable of extending the soil life of many organic herbicides”.
